According to patent US20240109868A1, “EP300/CBP MODULATOR, PREPARATION METHOD THEREFOR AND USE THEREOF” (Miracure Biotechnology Limited, priority 2022, published 2024):
Values belong to the compound of their own block, whether it stands above or below them.

Experiments:
22Rv1 Cell = assay: 22RV1 cell growth inhibition, CellTiter-Glo, 72 h; assay type: cell-based; conditions: 22RV1 cells, 72 h culture
Procedure: (§1) 22RV1 or vCap cells were cultured in RPMI-1640 medium (10% fetal bovine serum and 100 units (per mL) of penicillin/streptomycin dual antibody were added to RPMI-1640) in a 37° C., 5% CO2 cell incubator. Cells at the logarithmic growth phase were inoculated onto a 96-well cell culture plate at 5×10^3 cells/100 μL/well and cultured overnight. Solutions of different concentrations of an active compound in DMSO were added, with the final concentration being 0.5% DMSO. The positive control was 1% TweeN2O, and the negative control was 0.5% DMSO. After 72 h of culture, an equal volume of CellTiter-Glo was added to each well, and the mixtures were mixed homogeneously by shaking for 2 min. The plate was let stand at room temperature for 10 min, and fluorescence signal values were read using a microplate reader. Data were analyzed using Prism 7.0 and graphs were generated. The values are shown as mean f SEM (N=2). […] The X-axis represents compound concentration (μM), and the Y-axis represents % inhibition.

vCap Cell = assay: vCap cell growth inhibition, CellTiter-Glo, 72 h; assay type: cell-based; conditions: vCap cells, 72 h culture
Procedure: as §1

SMILES: COC(=O)N1Cc2cc(C3CCC(OC)CC3)cc(N3CCCc4cc(-c5cnn(C)c5)c(C(F)F)cc43)c2C1 (stereo not drawn) [Compound M001204]
IC50 (22Rv1 Cell): > 1000 nM | IC50 (vCap Cell): > 1000 nM

SMILES: CNC(=O)N1Cc2cc(C3=CC4CCC(C3)N4C(=O)OC(C)(C)C)cc(N3CCCc4cc(-c5cnn(C)c5)c(C(F)F)cc43)c2C1 (stereo not drawn) [Compound M001097]
IC50 (22Rv1 Cell; Homo sapiens, 22Rv1, 72 h): > 1000 nM | IC50 (vCap Cell; Homo sapiens, VCaP, 72 h): > 1000 nM

SMILES: CNC(=O)N1CCc2cc(C3=CC4CCC(C3)N4)cc(N3CCCc4cc(-c5cnn(C)c5)c(C(F)F)cc43)c2C1 (stereo not drawn) [Compound M001088]
IC50 (22Rv1 Cell; Homo sapiens, 22Rv1, 72 h): > 1000 nM | IC50 (vCap Cell; Homo sapiens, VCaP, 72 h): > 1000 nM

SMILES: COC1CCC(c2cc3c(c(N4CCCc5cc(-c6cnn(C)c6)c(C(F)F)cc54)c2)CN(C(C)=O)CC3)CC1 (stereo not drawn) [Compound M001197]
IC50 (22Rv1 Cell): > 1000 nM | IC50 (vCap Cell): > 1000 nM

SMILES: Cn1cc(-c2cc3c(cc2C(F)F)N(c2cccc4c2CNC(=O)CC4)CCC3)cn1 [Compound M001215, 9-[7-(difluoromethyl)-6-(1-methylpyrazol-4-yl)-3,4-dihydro-2H-quinolin-1-yl]-1,2,4,5-tetrahydro-2-benzazepin-3-one]
IC50 (22Rv1 Cell; Homo sapiens, 22Rv1, 72 h): > 1000 nM | IC50 (vCap Cell; Homo sapiens, VCaP, 72 h): > 1000 nM

SMILES: CC(=O)N1Cc2cc(C3CCN(C(=O)C4CN(C)C4)CC3)cc(N3CCCc4cc(-c5cnn(C)c5)c(C(F)F)cc43)c2C1 [Compound M001086]
IC50 (22Rv1 Cell; Homo sapiens, 22Rv1, 72 h): > 1000 nM | IC50 (vCap Cell; Homo sapiens, VCaP, 72 h): > 1000 nM

SMILES: CC(=O)N1Cc2cc(C3CCC([S@](C)(=N)=O)CC3)cc(N3CCCc4cc(-c5cnn(C)c5)c(C(F)F)cc43)c2C1 (stereo in doubt) [Compound M001330]
IC50 (22Rv1 Cell; Homo sapiens, 22Rv1, 72 h): > 1000 nM | IC50 (vCap Cell; Homo sapiens, VCaP, 72 h): > 1000 nM

SMILES: CNC(=O)N1Cc2cc(C3CCN(C)CC3)cc(N3CCCc4cc(-c5cnn(C)c5)c(C(F)F)cc43)c2C1 [Compound M001043]
IC50 (22Rv1 Cell; Homo sapiens, 22Rv1, 72 h): > 1000 nM | IC50 (vCap Cell; Homo sapiens, VCaP, 72 h): > 1000 nM

SMILES: CNC(=O)N1Cc2cc(-c3ccccc3)cc(N3CCCc4cc(-c5cnn(C)c5)c(C(F)F)cc43)c2C1 [Compound M001120]
IC50 (22Rv1 Cell; Homo sapiens, 22Rv1, 72 h): > 1000 nM | IC50 (vCap Cell; Homo sapiens, VCaP, 72 h): > 1000 nM

SMILES: CNC(=O)N1CCc2cc(C3CCNC(=O)C3)cc(N3CCCc4cc(-c5cnn(C)c5)c(C(F)F)cc43)c2C1 (stereo not drawn) [Compound M001123]
IC50 (22Rv1 Cell; Homo sapiens, 22Rv1, 72 h): > 1000 nM | IC50 (vCap Cell; Homo sapiens, VCaP, 72 h): < 1000 nM

SMILES: CC(=O)N1Cc2cc(C3CCC(F)(F)CC3)cc(N3CCCc4cc(-c5cnn(C)c5)c(C(F)F)cc43)c2C1 [Compound M001066]
IC50 (22Rv1 Cell; Homo sapiens, 22Rv1, 72 h): > 1000 nM | IC50 (vCap Cell; Homo sapiens, VCaP, 72 h): > 1000 nM

SMILES: CC(=O)N1Cc2cc(C3CCNCC3)cc(N3CCCc4cc(-c5cnn(C)c5)c(C(F)F)cc43)c2C1 [Compound M001040]
IC50 (22Rv1 Cell; Homo sapiens, 22Rv1, 72 h): > 1000 nM | IC50 (vCap Cell; Homo sapiens, VCaP, 72 h): > 1000 nM

SMILES: CNC(=O)N1Cc2cc(C3CC4CCC(C3)N4C(C)=O)cc(N3CCCc4cc(-c5cnn(C)c5)c(C(F)F)cc43)c2C1 (stereo not drawn) [Compound M001095]
IC50 (22Rv1 Cell; Homo sapiens, 22Rv1, 72 h): > 1000 nM | IC50 (vCap Cell; Homo sapiens, VCaP, 72 h): > 1000 nM

SMILES: CN1CCN(c2cc3c(c(N4CCCc5cc(-c6cnn(C)c6)c(C(F)F)cc54)c2)CN(C)C(=O)C3)CC1 [Compound M001024]
IC50 (22Rv1 Cell; Homo sapiens, 22Rv1, 72 h): > 1000 nM | IC50 (vCap Cell; Homo sapiens, VCaP, 72 h): > 1000 nM

SMILES: COCCN1CC(c2cc3c(c(N4CCCc5cc(-c6cnn(C)c6)c(C(F)F)cc54)c2)CN(C(C)=O)C3)CCC1=O (stereo not drawn) [Compound M001225]
IC50 (22Rv1 Cell; Homo sapiens, 22Rv1, 72 h): > 1000 nM | IC50 (vCap Cell; Homo sapiens, VCaP, 72 h): < 1000 nM

The next lines start with the values.

IC50 (22Rv1 Cell; Homo sapiens, 22Rv1, 72 h): < 1000 nM | IC50 (vCap Cell; Homo sapiens, VCaP, 72 h): < 1000 nM
SMILES: CC(=O)N1Cc2cc(C3CCNC(=O)C3)cc(N3CCCc4cc(-c5cnn(C)c5)c(C5CC5)cc43)c2C1 (stereo not drawn) [Compound M001219, 4-{2-acetyl-7-[7-cyclopropyl-6-(1-methylpyrazol-4-yl)-3,4-dihydro-2H-quinolin-1-yl]-1,3-dihydroisoindol-5-yl}piperidin-2-one]

IC50 (22Rv1 Cell; Homo sapiens, 22Rv1, 72 h): < 1000 nM | IC50 (vCap Cell; Homo sapiens, VCaP, 72 h): > 1000 nM
SMILES: CNC(=O)N1CCc2cc(C3CCN(CC(C)(C)O)C(=O)C3)cc(N3CCCc4cc(-c5cnn(C)c5)c(C(F)F)cc43)c2C1 (stereo not drawn) [Compound M001280]

IC50 (22Rv1 Cell; Homo sapiens, 22Rv1, 72 h): > 1000 nM | IC50 (vCap Cell; Homo sapiens, VCaP, 72 h): > 1000 nM
SMILES: CON1CCC(c2cc3c(c(N4CCCc5cc(-c6cnn(C)c6)c(C(F)F)cc54)c2)CN(C(=O)OC(C)(C)C)CC3)CC1 [Compound M001274, tert-butyl 8-[7-(difluoromethyl)-6-(1-methylpyrazol-4-yl)-3,4-dihydro-2H-quinolin-1-yl]-6-(1-methoxypiperidin-4-yl)-3,4-dihydro-1H-isoquinoline-2-carboxylate]

IC50 (22Rv1 Cell; Homo sapiens, 22Rv1, 72 h): > 1000 nM | IC50 (vCap Cell; Homo sapiens, VCaP, 72 h): > 1000 nM
SMILES: CC(=O)N1Cc2cc(N3CCN(C)CC3)cc(N3CCCc4cc(-c5cnn(C)c5)c(C(F)F)cc43)c2C1 [Compound M001003]

IC50 (22Rv1 Cell; Homo sapiens, 22Rv1, 72 h): > 1000 nM | IC50 (vCap Cell; Homo sapiens, VCaP, 72 h): > 1000 nM
SMILES: CC(=O)N1Cc2cc(C3CCCNC3)cc(N3CCCc4cc(-c5cnn(C)c5)c(C(F)F)cc43)c2C1 (stereo not drawn) [Compound M001048]

IC50 (22Rv1 Cell; Homo sapiens, 22Rv1, 72 h): > 1000 nM | IC50 (vCap Cell; Homo sapiens, VCaP, 72 h): > 1000 nM
SMILES: CNC(=O)N1CCc2cc(Cl)cc(N3CCCc4cc(-c5cnn(C)c5)c(C(F)F)cc43)c2C1 [Compound M001209]

IC50 (22Rv1 Cell; Homo sapiens, 22Rv1, 72 h): > 1000 nM | IC50 (vCap Cell; Homo sapiens, VCaP, 72 h): > 1000 nM
SMILES: CC(=O)N1CCc2cc(Cl)cc(N3CCCc4cc(-c5cnn(C)c5)c(C(F)F)cc43)c2C1 [Compound M001208]

IC50 (22Rv1 Cell; Homo sapiens, 22Rv1, 72 h): < 1000 nM | IC50 (vCap Cell; Homo sapiens, VCaP, 72 h): < 1000 nM
SMILES: CC(=O)N1Cc2cc(C3CCN(CC(F)(F)F)C(=O)C3)cc(N3CCCc4cc(-c5cnn(C)c5)c(C(F)F)cc43)c2C1 (stereo not drawn) [Compound M001252]

IC50 (22Rv1 Cell; Homo sapiens, 22Rv1, 72 h): < 1000 nM | IC50 (vCap Cell; Homo sapiens, VCaP, 72 h): < 1000 nM
SMILES: CC(=O)N1Cc2cc(C3CCN(CC#N)CC3)cc(N3CCCc4cc(-c5cnn(C)c5)c(C(F)F)cc43)c2C1 [Compound M001074]
